Assay results published in US10246421B2, “Indazolyl- and indolyl-benzamide derivatives” (ESANEX, INC., priority 2014, dated 2019).

Columns and labels:
Format in all cases: cell-based
A375 = test: Cell proliferation assay, A375; details: Homo sapiens, A-375
Method: (§1) A panel of cancer cell lines may be obtained from the DCTP Tumor Repository, National Cancer Institute (Frederick, Md.) or ATCC (Rockville, Md.). Cell cultures are maintained in Hyclone RPMI 1640 medium (Logan, Utah) supplemented with 10% fetal bovine serum and 20 mM HEPES buffer, final pH 7.2, at 37° C. with a 5% CO2 atmosphere. Cultures are maintained at sub-confluent densities. Human umbilical vein endothelial cells (HUVEC) are purchased from Clonetics, a division of Cambrex (Walkersville, Md.). Cultures are established from cryopreserved stocks using Clonetics EGM-2 medium supplemented with 20 mM HEPES, final pH 7.2, at 37° C. with a 5% CO2 atmosphere.
(§2) For proliferation assays, cells are seeded with the appropriate medium into 96 well plates at 1,000-2,500 cells per well, depending on the cell line, and are incubated overnight. The following day, test compound, DMSO solution (negative control), or Actinomycin D (positive control) is added to the appropriate wells as 10× concentrated stocks prepared in phosphate buffered saline. The cell plates are then incubated for an additional 2-5 days, depending on the cell line, to allow proliferation to occur. To measure cell density, 50 μL of WST-1 solution (Roche Applied Science, IN) diluted 1:5 in phosphate buffered saline is added to each well, and the cells incubated for an additional 1-5 hrs, again depending on the cell line. Optical density is determined for each well at […] using a Tecan GeniosPro plate reader (RTP, NC). The percentage of cell growth is determined by comparing the cell growth in the presence of test compounds to the cells treated with DMSO vehicle (control, 100% growth) and cells treated with Actinomycin D (10 μM, 0% growth).
(§3) Immediately after the WST-1 determination, the medium is removed from the cell lines, and the plates stored at −80° C. Using these assay plates, relative amounts of DNA in each well are determined using the Cyquant DNA assay kit from […] (Eugene, Oreg.) following the manufacturer's directions. Results for each compound treatment are compared to DMSO vehicle control (100%) and 10 μM Actinomycin D treated cells (0%).

HSP70 = test: A375 imaging assay, HSP70 induction; details: Homo sapiens, A-375, 24 hours treatment
Method: (§4) Cells of multiple human tumor lines were plated in Packard Viewplate-96, incubated overnight, and then treated with test compound for 24 hours. Following treatment, cell monolayers were fixed using standard methods and treated with antibodies targeted to the indicated Hsp90 clients. Primary antibodies were detected using a fluoroscene isothiocyanate (FITC)-conjugated anti-mouse antibody and a tetramethyl rhodamine isothiocyanate (TRITC)-conjugated anti-rabbit antibody. Deoxyribonucleic acid was stained and images were obtained using the compartmental analysis algorithm on a Cellomics Array scan 4.5 according to manufacturer instructions. Average intensities for vehicle control and treated wells were compared with test compound-treated cells to determine the 50% efficacious concentration (EC50) values. This methodology was augmented with an alternative method of immune-detection for p-Akt levels. Luminex detection of p-Akt used to directly assay the client effect, Akt, as well as the competency of the signaling cascade, as indicated by phosphorylation of S6 kinase.

PC-3 = test: Cell proliferation assay, PC-3; details: Homo sapiens
Method: as §1, §2, §3

NCI-H460 = test: Cell proliferation assay, NCI-H460; details: Homo sapiens
Method: as §1, §2, §3

K562 = test: Cell proliferation assay, K562; details: Homo sapiens
Method: as §1, §2, §3

Her2 = test: AU565 imaging assay, Her2 degradation; details: Homo sapiens, 24 hours treatment
Method: as §4

pS6 = test: A375 imaging assay, pS6 inhibition; details: Homo sapiens, A-375, 24 hours treatment
Method: as §4

pErk = test: AU565 imaging assay, pErk inhibition; details: Homo sapiens, 24 hours treatment
Method: as §4

Compound | IC50 (A375) [nM] | EC50 (HSP70) [nM] | IC50 (PC-3) [nM] | IC50 (NCI-H460; NCI-H460 (Table 2B)) [nM] | IC50 (K562) [nM] | EC50 (Her2) [nM] | EC50 (pS6) [nM] | EC50 (pErk) [nM] | IC50 (NCI-H460; NCI-H46 (Table 2A)) [nM]
Cc1nn(-c2cc(F)c(C(N)=O)c(N[C@H]3CCC[C@@H]3O)c2)c2c1CCC(C)(C)C2 [EX-007, 2-fluoro-6-((1S,2S)-2-hydroxycyclopentylamino)-4-(3,6,6-trimethyl-4,5,6,7-tetrahydro-1H-indazol-1-yl)benzamide] | 1 ± 0.466 | 0.092 | 74.1 ± 70.6 | 41.4 ± 18.4 | 92.3 ± 32.7 | 0.366 | 4.3 | 1.5 | 
Cc1nn(-c2cc(F)c(C(N)=O)c(N[C@H]3CC[C@H](O)CC3)c2)c2c1C=CC(C)(C)C2 [EX-008, 2-fluoro-6-((1r,4r)-4-hydroxycyclohexylamino)-4-(3,6,6-trimethyl-6,7-dihydro-1H-indazol-1-yl)benzamide] | 69.7 ± 9.3 | 54 | 40.5 ± 7.9 |  | 250 ± 77.5 | 51 | 59.1 | 112 | 142 ± 59
Cc1nn(-c2cc(F)c(C(N)=O)c(N[C@H]3CC[C@H](O)CC3)c2)c2c1CCC(C)(C)C2 [EX-009, 2-fluoro-6-((1r,4r)-4-hydroxycyclohexylamino)-4-(3,6,6-trimethyl-4,5,6,7-tetrahydro-1H-indazol-1-yl)benzamide] | 76 ± 43.1 | 37.2 | 44.1 ± 6.1 |  | 277 ± 81.8 | 35.8 | 28.5 | 101 | 167 ± 22.4
Cc1nn(-c2cc(F)c(C(N)=O)c(NC3CCCCC3)c2)c2c1C=CC(C)(C)C2 [EX-010, 2-(cyclohexylamino)-6-fluoro-4-(3,6,6-trimethyl-6,7-dihydro-1H-indazol-1-yl)benzamide] | 2260 |  | 3310 |  | 48000 |  |  |  | 5080
Cc1nn(-c2cc(F)c(C(N)=O)c(NC3CCCCC3)c2)c2c1CCC(C)(C)C2 [EX-011, 2-(cyclohexylamino)-6-fluoro-4-(3,6,6-trimethyl-4,5,6,7-tetrahydro-1H-indazol-1-yl)benzamide] | 9520 |  | 5120 |  | 4280 |  |  |  | 8590
Cc1nn(-c2cc(F)c(C(N)=O)c(NC3CCOC3)c2)c2c1C=CC(C)(C)C2 (stereo not drawn) [EX-012, 2-fluoro-6-(tetrahydrofuran-3-ylamino)-4-(3,6,6-trimethyl-6,7-dihydro-1H-indazol-1-yl)benzamide] | 242 ± 192 | 45.4 | < 80 | 1380 ± 425 | 172 ± 72.3 | 205 | 73.8 | 322 | 
Cc1nn(-c2cc(F)c(C(N)=O)c(N[C@H]3CCOC3)c2)c2c1CCC(C)(C)C2 [EX-013, (S)-2-fluoro-6-(tetrahydrofuran-3-ylamino)-4-(3,6,6-trimethyl-4,5,6,7-tetrahydro-1H-indazol-1-yl)benzamide] | 176 ± 145 | 77.7 | 160 ± 81.4 | 3170 ± 791 | 242 ± 118 | 329 | 156 | 360 | 
Cc1nn(-c2cc(F)c(C(N)=O)c(N[C@@H]3CCCC[C@H]3O)c2)c2c1C=CC(C)(C)C2 [EX-014, 2-fluoro-6-((1R,2R)-2-hydroxycyclohexylamino)-4-(3,6,6-trimethyl-6,7-dihydro-1H-indazol-1-yl)benzamide] | 630 ± 106 | 464 | 364 ± 7.8 | 1370 ± 325 | 363 ± 57.4 | 329 | 115 | 457 | 
Cc1nn(-c2cc(F)c(C(N)=O)c(N[C@H]3CCCC[C@@H]3O)c2)c2c1CCC(C)(C)C2 [EX-015, 2-fluoro-6-((1S,2S)-2-hydroxycyclohexylamino)-4-(3,6,6-trimethyl-4,5,6,7-tetrahydro-1H-indazol-1-yl)benzamide] | 448 ± 50.2 | 346 | 344 ± 10.2 | 1910 ± 513 | 359 ± 42.4 | 667 | 241 | 820 | 
Cc1nn(-c2cc(F)c(C(N)=O)c(N[C@H]3CC[C@H](O)CC3)c2)c2c1C(C)CC(C)(C)C2 (stereo partly drawn) [EX-016, 2-fluoro-6-((1R,4R)-4-hydroxycyclohexylamino)-4-(3,4,6,6-tetramethyl-4,5,6,7-tetrahydro-1H-indazol-1-yl)benzamide] | 10200 |  | 6490 |  | 6340 |  |  |  | 6550
CC1=CC(C)(C)Cc2c1c(C)nn2-c1cc(F)c(C(N)=O)c(N[C@H]2CC[C@H](O)CC2)c1 [EX-017, 2-fluoro-6-((1R,4R)-4-hydroxycyclohexylamino)-4-(3,4,6,6-tetramethyl-6,7-dihydro-1H-indazol-1-yl)benzamide] | 2580 |  | 1550 |  | 1690 |  |  |  | 2130
